Key:
[1] = system: thrombin generation in normal human plasma with rhAPC; experiment: Thrombin generation in normal human plasma in the presence of rhAPC; format: biochemical
Procedure: (§1) BU titer values for FVIII antibodies added to FVIII-deficient plasma were determined using a modified Nijmegen Bethesda assay (Barrow and Lollar; JTH 2006, 4:2223-2229). Briefly, antibody was serially diluted in HBS with 0.05% Tween 80 and mixed 1:1 with pooled normal plasma that was supplemented with 100 mM Imidazole, pH 7.0. Samples were incubated at 37° C. for 2 hours then assayed by aPTT with APTT XL reagent (Pacific Hemostasis). A standard curve was derived from a serial dilution of normal plasma into FVIII deficient plasma that was also mixed 1:1 with HBST and incubated at 37° C. for 2 hours. Percent FVIII activity was plotted versus mg/ml of antibody and residual activity of 50% was defined as 1 BU/ml. In addition, endogenous thrombin potential (ETP) assays were performed as described (3). Briefly FVa mutants or saline were added to human or murine plasma (George King Bio-Medical; mouse source, 50% v/v) supplemented with […] corn trypsin inhibitor (Haematologic Technologies), 10 mM CaCl2, 10 μM phospholipid vesicles (80% phosphatidylcholine, 20% phosphatidylserine, prepared as described (6), 0.2 pM soluble tissue factor (Innovin®, Dade Behring), and 0.4 mM Z-Gly-Gly-Arg-AMC (thrombin substrate, Bachem) in HBS. After mixing, 100 μL was transferred to a FluoroNunc microtiter plate at 37° C. to monitor fluorescence (excitation at 360 nm/emission at 460 nm; Gemini EM fluorescent plate reader (Molecular Devices)). Fluorescence time course data were converted to nM thrombin as described (7). ETP, defined as the area under the curve, was determined using Prism 5.04 (Graphpad).
(§2) APC-mediated inactivation of FVa was analyzed in ETP assays and aPTT clotting assays. FVa mutants were incubated with equal volumes of either recombinant human APC (Xigris®) or buffer in human and murine Balb/c plasma.

[2] = system: thrombin generation in murine Balb/c plasma with rhAPC; experiment: Thrombin generation in murine Balb/c plasma in the presence of rhAPC; format: biochemical, mouse
Procedure: as §1, §2

[3] = system: aPTT clotting time in murine plasma; experiment: aPTT clotting assay in murine plasma with rhAPC; format: biochemical, mouse; conditions: 5 U/mL FVa variants, APC, ~100 seconds without FVa
Procedure: as §2
Plasma (50 μL) was mixed with 50 μL of a PTT reagent (APTT-XL, Pacific Hemostasis) and incubated at 37° C. for 3 minutes in the presence of FVa either with recombinant human APC or buffer. Following addition of 25 μL of 50 mM CaCl2 in HBS, 0.5% BSA, the clotting time was recorded using an ST4 coagulometer (Diagnostica Stago).

Balb/c mice = experiment: Liver laceration bleeding assay, APC-induced bleeding in Balb/c mice; format: in vivo
Procedure: Mice were anesthetized with Isofluorane 3% and the abdomen was opened by substernal blunt midline dissection. […] Immediately after laceration mice were positioned prone into a small weighing dish (8 cm diameter) filled with saline (37° C., 13 mL), transferred into the anesthesia chamber which rested on a heating pad (37° C.). Anesthesia was maintained at 3% Isofluorane and dishes were changed after 10 minutes to collect blood for the first and second 10 minutes separately. Blood loss was determined as described for the tail clip model. Groups of Balb/c mice were injected intravenously (tail vein) with equal volumes (200 μL) of ^superFVa or saline 2 minutes prior to intravenous injection of plasma-derived human APC, followed immediately by liver laceration. All agents were diluted in sterile sodium chloride 0.9% for injection (Hospira Inc).

[4] = system: Balb/c mice treated with anti-FVIII antibodies; experiment: Tail clip bleeding assay in Balb/c mice treated with anti-FVIII antibodies; format: in vivo, mouse; conditions: 20 minutes
Procedure: Mice were anesthetized, placed on temperature controlled heating pads (37° C.), and the distal portion of the tail was cut at 1.5 mm diameter after which the tail was immersed in a predefined volume of 37° C. saline (0.9% NaCl) for 20 minutes. Blood loss was determined by the hemoglobin concentration in the saline solution after red cell lysis with 2% acetic acid and measured by absorbance at 405 nm. Using a hemoglobin standard derived from defined blood volumes, blood loss was calculated assuming a hematocrit of 46% and expressed in μL/g body weight. Groups of FVIII-deficient mice were injected intravenously (retro-orbital) within 2 minutes prior to tail cut with equal volumes ([…]) of sterile saline for injection (0.9%, Hospira Inc.), rhFVIII 200 units/kg FVIII (Xyntha®, Pfizer, NY, N.Y., USA) ^superFVa, rhFVIIa (NovoSeven®, NovoNordisk, Bagsvaerd, Denmark) or a combination of ^superFVa and rhFVIIa. All agents were diluted in sterile sodium chloride 0.9% for injection (Hospira Inc). […]
To further elucidate the efficiency of ^superFVa to reduce bleeding in presence of inhibitors for FVIII either alone or in combination with rhFVIIa, blood loss during a 20 minute bleeding period was determined in a tail transection model in Balb/c mice treated with anti-FVIII antibodies (0.25 mg/kg). […]

[5] = system: thrombin generation in normal human plasma; experiment: Thrombin generation in NHP in the presence of rivaroxaban or apixaban; format: biochemical; conditions: factor alone: rhFVIIa 2 μg/ml, ^superFVa 400 nM; NOAC 200 nM
Procedure: Thrombin generation or Endogenous Thrombin Potential (ETP) assays were performed as described. Briefly, plasma samples supplemented with CTI, TF, PCPS were preincubated […] in the presence or absence of rivaroxaban, apixaban, Kcentra®, NovoSeven® or ^superFVa. Thrombin generation was initiated by addition of CaCl2 and Z-Gly-Gly-Arg-AMC in HBS/0.5% BSA. The final reaction mixture contained, 50% plasma, 0.725 μM CTI, 0.2 Pm TF, 4 μM PCPS vesicles, 0.5 mM Z-GGR-AMC, 7.6 mM CaCl2 in a total volume of 100 μl. Concentrations of rivaroxaban, apixaban, Kcentra®, NovoSeven® or ^superFVa are indicated in the result section and in the figure legends. Fluorescence was measured at excitation/emission wavelengths of […] using Gemini EM fluorescent plate reader (Molecular Devices). Fluorescence time course data were converted to Nm thrombin as described. ETP, defined as the area under the curve (AUC) and the peak height were determined using Origin software.

Substance: ^superFVa: engineered APC-resistant FVa variant (SEQ ID NO:4): R306Q, R506Q, R679Q, Cys609-Cys1691 disulfide, S2183A, B-domain deleted
- rescue of APC-induced reduction of thrombin generation ([1]; factor alone, rhAPC, normal human plasma (FIG. 16)): corrected thrombin generation to levels to those of normal human plasma
- ETP restored ([1]; human plasma, ETP maximally suppressed by APC): 90-100%
- effect on thrombin generation suppressed by APC ([1]; human plasma, concentrations where ^superFVa restores): fully restored thrombin generation
- ETP restored ([2]; ETP maximally suppressed by APC): 90-100%
- effect on thrombin generation suppressed by APC ([2]; concentrations where ^superFVa restores): fully restored thrombin generation
- aPTT [3]: fully corrected the aPTT
- mean blood loss (Balb/c mice; ^superFVa (25 U/mL) prior to APC 1.25 mg/kg, 20 minutes after liver laceration): 29 µL/g
- bleeding-induced mortality (Balb/c mice; ^superFVa prior to APC, liver laceration): abolished bleeding-induced mortality
- bleeding during the 2nd 10 min phase (Balb/c mice; ^superFVa prior to wt APC, liver laceration): fully prevented bleeding
- blood loss ([4]; ^superFVa 10 U/kg): 19.47 µL/g
- blood loss ([4]; ^superFVa 40 U/kg): 9.97 µL/g
- ability to enhance the ETP of NHP suppressed with rivaroxaban or apixaban [5]: nor ^superFVa at high concentration (400 nM) were able to enhance the ETP

— patent publication US10407488B2, “Therapy for treatment or prevention of conditions associated with bleeding or hypocoagulation” (THE REGENTS OF THE UNIVERSITY OF CALIFORNIA, priority 2013, dated 2019)
